Test system: DU-145 multicell spheroids with HUVEC/MSC, viability
Assay: Anticancer human tumor DU-145 cell line growth inhibition [IpAb];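 note: spheroids exposed to agents for seven days before measurement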;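 for viability, T/C: percent of DMSO vehicle control viability so 100% = untreated level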
Settings: for viability, T/C: stronger effect = lower value
Method in brief: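 Spheroids of 60% malignant cells, 25% HUVEC and 15% MSC were exposed to targeted agents combined with ipatasertib or abemaciclib. Doses started at or near clinical Cmax (10 microM when unknown) and fell in half-log steps.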

[1] = curve of first compound, second compound 0.1 µM
[2] = curve of first compound, second compound 0.316 µM
[3] = curve of first compound, second compound 1 µM
[4] = curve of first compound, second compound 3.16 µM
[5] = curve of first compound, second compound 10 µM
[6] = second compound 0.1 µM, first compound 0.0316 µM
[7] = second compound 0.1 µM, first compound 0.1 µM
[8] = second compound 0.1 µM, first compound 0.316 µM
[9] = second compound 0.1 µM, first compound 1 µM
[10] = second compound 0.1 µM, first compound 3.16 µM
[11] = second compound 0.1 µM, first compound 10 µM
[12] = second compound 0.316 µM, first compound 0.0316 µM
[13] = second compound 0.316 µM, first compound 0.1 µM
[14] = second compound 0.316 µM, first compound 0.316 µM
[15] = second compound 0.316 µM, first compound 1 µM
[16] = second compound 0.316 µM, first compound 3.16 µM
[17] = second compound 0.316 µM, first compound 10 µM
[18] = second compound 1 µM, first compound 0.0316 µM
[19] = second compound 1 µM, first compound 0.1 µM
[20] = second compound 1 µM, first compound 0.316 µM
[21] = second compound 1 µM, first compound 1 µM
[22] = second compound 1 µM, first compound 3.16 µM
[23] = second compound 1 µM, first compound 10 µM
[24] = second compound 3.16 µM, first compound 0.0316 µM
[25] = second compound 3.16 µM, first compound 0.1 µM
[26] = second compound 3.16 µM, first compound 0.316 µM
[27] = second compound 3.16 µM, first compound 1 µM
[28] = second compound 3.16 µM, first compound 3.16 µM
[29] = second compound 3.16 µM, first compound 10 µM
[30] = second compound 10 µM, first compound 0.0316 µM
[31] = second compound 10 µM, first compound 0.1 µM
[32] = second compound 10 µM, first compound 0.316 µM
[33] = second compound 10 µM, first compound 1 µM
[34] = second compound 10 µM, first compound 3.16 µM
[35] = second compound 10 µM, first compound 10 µM

Compound	IC50 [1]	IC50 [2]	IC50 [3]	IC50 [4]	IC50 [5]	viability, T/C [6]	viability, T/C [7]	viability, T/C [8]	viability, T/C [9]	viability, T/C [10]	viability, T/C [11]	viability, T/C [12]	viability, T/C [13]	viability, T/C [14]	viability, T/C [15]	viability, T/C [16]	viability, T/C [17]	viability, T/C [18]	viability, T/C [19]	viability, T/C [20]	other results
CC1(C)CCC(CN2CCN(c3ccc(C(=O)NS(=O)(=O)c4ccc(NCC5CCOCC5)c([N+](=O)[O-])c4)c(Oc4cnc5[nH]ccc5c4)c3)CC2)=C(c2ccc(Cl)cc2)C1 + CC(C)NCC(C(=O)N1CCN(c2ncnc3c2C(C)CC3O)CC1)c1ccc(Cl)cc1	3450 nM	497 nM	< 31.6 nM	< 31.6 nM	< 31.6 nM	86.7%	87.5%	78.1%	74.9%	53.3%	11.5%	58.1%	53.6%	50.6%	45.2%	37%	8.7%	30.5%	29.4%	30.9%	viability, T/C [21]: 28.6%; viability, T/C [22]: 27.1%; viability, T/C [23]: 10.4%; viability, T/C [24]: 23.1%; viability, T/C [25]: 20.6%; viability, T/C [26]: 20.4%; viability, T/C [27]: 19.6%; viability, T/C [28]: 19.9%; viability, T/C [29]: 5.88%; viability, T/C [30]: 19.1%; viability, T/C [31]: 19.2%; viability, T/C [32]: 18.4%; viability, T/C [33]: 16.9%; viability, T/C [34]: 15.9%; viability, T/C [35]: 5.38%
Cn1ncc(Cl)c1-c1cc(C(=O)NC(CN)Cc2cccc(F)c2)sc1Cl (stereo unspecified) + CC(C)NCC(C(=O)N1CCN(c2ncnc3c2C(C)CC3O)CC1)c1ccc(Cl)cc1	142 nM	< 31.6 nM	< 31.6 nM	< 31.6 nM	< 31.6 nM	72.8%	56.3%	35.3%	24.7%	17%	0.42%	46.1%	41.2%	33.6%	24%	16.4%	1.33%	30%	32.6%	28%	viability, T/C [21]: 24.2%; viability, T/C [22]: 15.8%; viability, T/C [23]: 0.93%; viability, T/C [24]: 22%; viability, T/C [25]: 24.4%; viability, T/C [26]: 21.7%; viability, T/C [27]: 19.6%; viability, T/C [28]: 18.7%; viability, T/C [29]: 0.86%; viability, T/C [30]: 19.4%; viability, T/C [31]: 19.7%; viability, T/C [32]: 19.7%; viability, T/C [33]: 18.5%; viability, T/C [34]: 15.8%; viability, T/C [35]: 0.27%
CCN1CCN(Cc2ccc(Nc3ncc(F)c(-c4cc(F)c5nc(C)n(C(C)C)c5c4)n3)nc2)CC1																					viability, T/C (compound 0.01 µM): 97% [middle of 13 runs]; viability, T/C (compound 0.0316 µM): 94% [middle of 13 runs]; viability, T/C (compound 0.1 µM): 84.7% [middle of 13 runs]; viability, T/C (compound 0.316 µM): 74.7% [middle of 13 runs]; viability, T/C (compound 1 µM): 65.3% [middle of 13 runs]; IC50 (compound alone, run of 06/01/2021): > 1000 nM

Source: PubChem BioAssay AID2060335 (Molecular Pharmacology Branch, DTP, NCI, 2025)
